Test results taken from US20230181430A1, “TOPICAL FORMULATIONS COMPRISING DUTASTERIDE FOR TREATING DERMATOLOGICAL DISORDERS INCLUDING MALE PATTERN BALDNESS” (XYON Health Inc., priority 2020, published 2023).
Several values for one entry are separate records, joined by “and”; a condition that tells them apart may be missing. Identical values can stand only once. Like-named read-outs stand apart in the source and are kept apart here.

Legend:
[1] = In vitro skin permeation assessment of dutasteride (Franz cell); assay type: in vitro ADME; settings: 1-24 hours, human epidermis
Experimental: To investigate the impact of the siliconic components in dutasteride-loaded formulations, in vitro tests were conducted to measure the permeation through and retention into skin epidermis of a 1% dutasteride-loaded silicone gel formulation made according to the process of Example 2. As a comparison, a gel spray of dutasteride without silicone (PEG-8 Dimethicone or Poly(methylsilsesquioxane)) was also prepared. An original Franz-type diffusion cell system was modified to accommodate widened vertical columns and removal of the bowl shape. The diffusion area was 0.636 cm^2 with a receiver capacity of approximately 3.0 mL. The receiver volume for each cell was individually calibrated.
Human epidermis samples were prepared according to standard protocols. The samples were obtained from abdominal skin of two 30-50 year old Eurasiatic donors. The samples were used as a membrane between the two chambers in the Franz cells. […]
Before being mounted on the Franz cell, each epidermal sheet was visually inspected to avoid any possible defects. Additionally, the electrical resistance of isolated epidermis was measured to ensure the integrity of the barrier membrane. […]
The prepared Franz cells were stirred continuously using a magnetic stir bar at a temperature of 37° C. […] After standing for 24 hours, the supernatant was centrifuged at 3000 rpm for 10 minutes at 23° C. and analyzed by HPLC. […]

[2] = experimental; cited from earlier work
[3] = cited from earlier work
[4] = in vivo; cited from earlier work
[5] = tested on: serum DHT; settings: cited from earlier work; for reduction of serum DHT levels: oral administration / oral formulations
[6] = after oral administration; cited from earlier work

SMILES	dutasteride in the receiver compartment [1]	logP [2]	plasma protein binding [3] [%]	volume of distribution [4] [L]	suppression of DHT production ([5]; after sustained oral administration)	reduction of serum DHT levels [5]	reduction of serum DHT levels ([5]; listed as Finasteride)	systemic clearance (CL) [6] [mL/min]
C[C@]12C=CC(=O)N[C@@H]1CC[C@@H]1[C@@H]2CC[C@]2(C)[C@@H](C(=O)Nc3cc(C(F)(F)F)ccc3C(F)(F)F)CC[C@@H]12 [dutasteride, Dutasteride]	never detected	6.8	99	300 to 500	up to 99%			
CC(C)(C)NC(=O)[C@H]1CC[C@H]2[C@@H]3CC[C@H]4NC(=O)C=C[C@]4(C)[C@H]3CC[C@]12C [finasteride, Finasteride]		3.03		44 to 96		60 to 70% and 60-70%	65-70%	165
